Here are results for five molecules from patent publication US9695172B2, “Diazepane derivatives and uses thereof” (Dana-Farber Cancer Institute, Inc., priority 2014, dated 2017).

By IC50 is commonly meant the point on the concentration scale where inhibition reaches its midpoint. Low values mean greater potency in that assay, high ones weaker potency in that assay.

Each structure is given as a SMILES string. Read-outs that look alike come from different tables or passages of the source.

One experiment has as its target BRD4 (Homo sapiens (Human), UniProt O60885). Briefly: BRD4 IC50 (acetyl-histone binding assay). Here is the method:
(§1) Assays were performed with minor modifications from the manufacturer's protocol (PerkinElmer, USA). All reagents were diluted in 50 mM HEPES, 150 mM NaCl, 0.1% w/v BSA, and 0.01% w/v Tween 20 at pH 7.5 and allowed to equilibrate to room temperature prior to addition to plates. After addition of Alpha beads to master solutions, all subsequent steps were performed in low light conditions. […] Addition to wells was performed with either a multichannel pipet (for optimization experiments) or a Biotek EL406 liquid handler. After a 1000-rpm spin-down for 1 minute, 100 nL of the solutions of the compounds of the invention from stock plates were added by pin transfer using a Janus Workstation (PerkinElmer, USA). The streptavidin-coated donor beads (25 μg/ml final) were added as with previous solution in a 2×, 10 μL volume. Following this addition, the plates were sealed with foil to block light exposure and to prevent evaporation. The plates were spun down again at 1000 rpm for 1 minute. Next, the plates were incubated in the room with the plate reader (for temperature equilibration) for 1.5 hour prior to reading the assay.

Another experiment addresses BRDT (Homo sapiens (Human), UniProt Q58F21). The experiment can be described thus: BRDT IC50. The format is binding. On the procedure: as §1
Another experiment has as its target LRRK2 (Homo sapiens (Human), UniProt Q5S007). Briefly: LRRK2 IC50. It is filed as biochemical.
The test system of the next experiment is MV411. Briefly: Cellular assay, cell viability (ATPlite), MV411. It is filed as cell-based. The conditions noted are these: MV411 cell line. On the procedure:
(§2) The compounds of the invention are also evaluated in the BRD4 dependant cell line for the cellular activity to generate cellular IC50 values.
(§3) Cells (e.g., BRD4 dependant cells) were counted and adjusted to 60,000 cells/mL. Using a Biotek EL406, 50 μL of the cells in media were distributed into 384 well white plates from Thermo. Immediately after plating, compounds of the invention in DMSO were distributed to plates. For large plate sets, cells were returned to a 37° C. incubator while not in use. The compounds were added to plates using a 100 nL 384 well pin transfer manifold on a Janus workstation. Stocks were arrayed in 10 point quadruplicate dose response in DMSO stock in 384-well Greiner compound plates. After addition of the compounds, plates were incubated for three days in a 37° C. incubator. Cell viability was read out using ATPlite from Perkin Elmer. Plates were removed from the incubator and brought to room temperature prior to use. Lyophilized powder was resuspended in lysis buffer and diluted 1:2 with DI water. 25 μL of this solution was added to each well using the Biotek liquid handler. Plates were sealed with adherent aluminum seals prior to vortexing and spinning down at 1000 g for 1 minute. Plates were incubated for 15 minutes at room temperature before signal was read on an Envision Plate Reader.
Background: In ATP-based viability assays light output follows the ATP content of the culture.

The subject of a further experiment is NOMO-1. The experiment can be described thus: Cellular assay, cell viability (ATPlite), NOMO-1. It is filed as cell-based. The conditions noted are these: NOMO-1 cell line. Here is the method:
as §2, §3

The subject of another experiment is MOLM-13. The experiment can be described thus: Cellular assay, cell viability (ATPlite), MOLM-13. It is filed as cell-based. The conditions noted are these: MOLM-13 cell line. On the procedure:
as §2, §3

Another experiment relates to 797. Briefly: Cellular assay, cell viability (ATPlite), 797. It is filed as cell-based. The note with it: 797 cell line. Here is the method: as §2, §3
The next experiment concerns Kasumi-1. Briefly: Cellular assay, cell viability (ATPlite), Kasumi-1. The format is cell-based. The conditions noted are these: Homo sapiens; Kasumi-1 cell line. Here is the method: as §2, §3
The test system of another experiment is TF-1. The experiment can be described thus: Cellular assay, cell viability (ATPlite), TF-1. The format is cell-based. The conditions noted are these: TF-1 cell line. On the procedure:
as §2, §3

Another experiment has as its target AURKA (Homo sapiens (Human), UniProt O14965). The experiment can be described thus: AURKA IC50. It is filed as biochemical.
Another experiment has as its target AURKB (Homo sapiens (Human), UniProt Q96GD4). Briefly: AURKB IC50. The format is biochemical.
Another experiment deals with AURKC (Homo sapiens (Human), UniProt Q9UQB9). Briefly: AURKC IC50. The format is biochemical.
Sequence of AURKC (Q9UQB9 whole entry): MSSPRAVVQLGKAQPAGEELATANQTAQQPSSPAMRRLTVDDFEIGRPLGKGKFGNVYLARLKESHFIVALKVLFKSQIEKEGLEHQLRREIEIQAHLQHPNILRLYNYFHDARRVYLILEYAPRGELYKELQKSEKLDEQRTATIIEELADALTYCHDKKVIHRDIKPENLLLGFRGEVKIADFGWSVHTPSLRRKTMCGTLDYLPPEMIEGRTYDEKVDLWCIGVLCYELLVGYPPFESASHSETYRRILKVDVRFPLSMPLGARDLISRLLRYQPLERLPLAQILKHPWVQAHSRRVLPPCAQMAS
The mark [1] stands for this setting: first BRD4 value listed for the compound.
Where [2] appears, read: second BRD4 value listed for the compound.

Sequence of LRRK2 (Q5S007 whole entry): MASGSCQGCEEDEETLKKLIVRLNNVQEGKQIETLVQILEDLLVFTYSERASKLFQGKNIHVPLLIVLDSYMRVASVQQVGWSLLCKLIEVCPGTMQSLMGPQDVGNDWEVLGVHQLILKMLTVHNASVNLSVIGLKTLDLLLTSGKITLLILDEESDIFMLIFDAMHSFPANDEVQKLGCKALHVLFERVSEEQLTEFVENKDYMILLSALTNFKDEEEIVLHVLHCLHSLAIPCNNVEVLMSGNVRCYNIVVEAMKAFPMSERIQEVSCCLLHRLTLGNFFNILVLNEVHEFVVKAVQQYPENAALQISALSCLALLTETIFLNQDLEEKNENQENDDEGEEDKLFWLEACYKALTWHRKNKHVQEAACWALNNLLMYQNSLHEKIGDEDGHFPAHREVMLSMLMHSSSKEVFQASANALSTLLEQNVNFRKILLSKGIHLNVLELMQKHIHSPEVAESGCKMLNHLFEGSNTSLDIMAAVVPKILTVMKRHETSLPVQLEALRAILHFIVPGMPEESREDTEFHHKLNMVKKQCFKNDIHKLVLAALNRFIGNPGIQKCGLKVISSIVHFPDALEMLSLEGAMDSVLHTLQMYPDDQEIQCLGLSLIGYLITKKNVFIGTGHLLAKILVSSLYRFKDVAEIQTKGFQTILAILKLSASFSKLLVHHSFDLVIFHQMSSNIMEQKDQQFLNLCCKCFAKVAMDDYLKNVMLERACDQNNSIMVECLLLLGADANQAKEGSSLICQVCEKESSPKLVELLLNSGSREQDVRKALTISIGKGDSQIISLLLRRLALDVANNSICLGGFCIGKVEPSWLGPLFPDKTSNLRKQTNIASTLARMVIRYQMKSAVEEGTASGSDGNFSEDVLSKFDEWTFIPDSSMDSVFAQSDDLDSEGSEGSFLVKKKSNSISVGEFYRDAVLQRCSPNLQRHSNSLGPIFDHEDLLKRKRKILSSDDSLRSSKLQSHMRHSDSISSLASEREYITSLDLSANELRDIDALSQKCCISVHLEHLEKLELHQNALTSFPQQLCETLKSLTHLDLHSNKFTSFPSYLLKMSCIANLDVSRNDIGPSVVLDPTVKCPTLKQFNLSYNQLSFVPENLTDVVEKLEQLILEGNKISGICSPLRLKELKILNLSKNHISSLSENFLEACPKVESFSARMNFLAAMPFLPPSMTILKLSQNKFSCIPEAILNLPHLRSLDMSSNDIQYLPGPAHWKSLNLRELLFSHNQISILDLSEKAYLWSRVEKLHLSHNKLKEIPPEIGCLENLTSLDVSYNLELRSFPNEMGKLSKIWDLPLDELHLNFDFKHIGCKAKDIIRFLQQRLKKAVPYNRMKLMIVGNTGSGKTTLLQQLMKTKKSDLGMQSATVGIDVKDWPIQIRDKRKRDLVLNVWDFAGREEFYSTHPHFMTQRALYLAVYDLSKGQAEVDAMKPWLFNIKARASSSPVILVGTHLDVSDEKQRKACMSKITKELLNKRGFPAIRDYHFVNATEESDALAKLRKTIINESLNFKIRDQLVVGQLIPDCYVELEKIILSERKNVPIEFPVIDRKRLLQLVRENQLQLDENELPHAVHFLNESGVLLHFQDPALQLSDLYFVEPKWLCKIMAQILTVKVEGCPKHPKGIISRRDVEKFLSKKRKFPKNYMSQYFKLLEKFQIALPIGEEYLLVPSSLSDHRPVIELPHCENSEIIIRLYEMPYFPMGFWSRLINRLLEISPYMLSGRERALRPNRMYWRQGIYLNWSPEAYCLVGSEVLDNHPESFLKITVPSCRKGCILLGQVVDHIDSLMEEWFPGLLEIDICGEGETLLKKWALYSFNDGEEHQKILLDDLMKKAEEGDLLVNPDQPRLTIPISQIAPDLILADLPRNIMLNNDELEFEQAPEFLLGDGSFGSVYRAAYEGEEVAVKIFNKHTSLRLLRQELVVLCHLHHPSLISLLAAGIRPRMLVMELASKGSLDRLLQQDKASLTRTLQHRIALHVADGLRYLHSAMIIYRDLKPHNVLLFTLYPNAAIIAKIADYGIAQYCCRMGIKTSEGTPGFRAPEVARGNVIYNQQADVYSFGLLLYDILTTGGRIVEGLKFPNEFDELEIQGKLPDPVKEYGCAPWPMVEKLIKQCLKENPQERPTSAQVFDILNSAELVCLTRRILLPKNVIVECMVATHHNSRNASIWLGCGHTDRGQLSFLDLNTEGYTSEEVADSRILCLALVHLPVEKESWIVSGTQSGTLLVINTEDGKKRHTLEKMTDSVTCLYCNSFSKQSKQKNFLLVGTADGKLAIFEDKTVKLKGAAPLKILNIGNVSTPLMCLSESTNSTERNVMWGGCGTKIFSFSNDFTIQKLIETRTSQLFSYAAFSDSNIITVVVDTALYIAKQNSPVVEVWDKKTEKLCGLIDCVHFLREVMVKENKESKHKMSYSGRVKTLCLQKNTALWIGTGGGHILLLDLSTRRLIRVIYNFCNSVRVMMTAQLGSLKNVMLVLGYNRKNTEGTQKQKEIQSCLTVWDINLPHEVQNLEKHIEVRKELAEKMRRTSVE
Sequence of AURKA (O14965 whole entry): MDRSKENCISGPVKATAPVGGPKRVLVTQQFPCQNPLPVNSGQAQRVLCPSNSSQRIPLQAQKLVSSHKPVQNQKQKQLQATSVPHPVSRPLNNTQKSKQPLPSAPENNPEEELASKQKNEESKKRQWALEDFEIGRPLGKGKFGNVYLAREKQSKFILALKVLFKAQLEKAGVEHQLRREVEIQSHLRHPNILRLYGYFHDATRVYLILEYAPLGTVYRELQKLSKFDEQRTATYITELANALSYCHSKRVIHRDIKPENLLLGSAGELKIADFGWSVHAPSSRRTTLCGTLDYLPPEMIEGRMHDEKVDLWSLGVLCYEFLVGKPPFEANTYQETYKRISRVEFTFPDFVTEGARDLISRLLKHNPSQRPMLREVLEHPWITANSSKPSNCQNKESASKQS
Sequence of AURKB (Q96GD4 whole entry): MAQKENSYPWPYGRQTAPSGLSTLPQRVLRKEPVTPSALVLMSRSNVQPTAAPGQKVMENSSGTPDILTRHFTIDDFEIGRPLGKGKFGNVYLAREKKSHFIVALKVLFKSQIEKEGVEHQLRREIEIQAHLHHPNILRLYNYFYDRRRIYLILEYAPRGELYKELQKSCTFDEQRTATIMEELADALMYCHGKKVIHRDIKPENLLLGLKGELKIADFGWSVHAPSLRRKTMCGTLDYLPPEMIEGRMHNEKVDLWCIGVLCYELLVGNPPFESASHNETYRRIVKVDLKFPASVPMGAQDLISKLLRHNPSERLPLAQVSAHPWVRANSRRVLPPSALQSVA

As to `COc1cc(C(=O)N2CCC(N3CCN(C)CC3)CC2)ccc1Nc1ccc2c(n1)N(C)c1ccccc1C(=O)N2C` [Compound 3], the IC50 on BRD4 (setting [1]) is 1.37 µM; on BRD4 (setting [2]), 0.813 µM; at BRDT, 3.68 µM; against LRRK2, over 10 µM; with MV411 (Homo sapiens, MV4-11), 1.42 µM; in the experiment with NOMO-1 (Homo sapiens), 7.23 µM. The figures for the IC50 in the experiment on MOLM-13 (Homo sapiens) and in the experiment on 797 were 2.92 µM and 2.49 µM, respectively.
As to `Cc1sc2c(c1C)C(c1ccc(Cl)cc1)=N[C@@H](CC(=O)OC(C)(C)C)c1nnc(C)n1-2` [JQ1, reference compound], the IC50 with MV411 (Homo sapiens, MV4-11) was 0.0656 µM; in the experiment on NOMO-1 (Homo sapiens) it was 0.172 µM; with MOLM-13 (Homo sapiens), 0.0892 µM; in the experiment with 797, 0.092 µM; in the experiment with Kasumi-1 it was 0.0488 µM; in the experiment with TF-1 (Homo sapiens) it was 0.109 µM.
In the case of `C[C@@H](Oc1cc(-n2cnc3ccc(CN4CCN(C)CC4)cc32)sc1C(N)=O)c1ccccc1C(F)(F)F` [GSK461364, reference compound], the IC50 at BRD4 and against BRDT was over 50 µM each time. Moreover, the “TF-1 IC50” value in the experiment on TF-1 (result in words) is “poor convergence”.
For the molecule `CN1C(=O)c2ccccc2N(C)c2nc(Nc3ccc(S(N)(=O)=O)cc3)ccc21` [Compound 2-221], the IC50 is 2.99 µM at BRD4 (setting [1]); 3.27 µM at BRD4 (setting [2]); 5.66 µM on BRDT; over 10 µM against AURKA; over 10 µM against AURKB; over 10 µM on AURKC. In addition, the IC50 in the experiment on MV411 is 3.25 µM; in the experiment on NOMO-1, over 20 µM; in the experiment on MOLM-13, 10.9 µM; in the experiment with 797 it was 9.28 µM.
In the case of `COc1cc(C(=O)NC2CCN(C)CC2)ccc1Nc1ccc2c(n1)N(C)c1ccccc1C(=O)N2C` [Compound 2-227], the IC50 on BRD4 (setting [1]) was 2.14 µM; on BRD4 (setting [2]), 1.87 µM; against BRDT, 5.41 µM; against LRRK2 it was over 10 µM; in the experiment with MV411, 1.95 µM; in the experiment on NOMO-1 it was 6.36 µM. The values for the IC50 with MOLM-13 and in the experiment with 797 were 4.25 µM and 5.76 µM, respectively.
